Laboratory results taken from patent US10829520B2, “Beta-hairpin peptidomimetics” (POLYPHOR AG, priority 2015, dated 2020).
Where a SMILES comes first, the peptide text is derived from it. Bridges are numbered along the chain shown (N, C = ends). [ ]: non-standard residue; d: D form. Tle = CC(C)(C)[C@H](N)C(=O)O; dDab = NCC[C@@H](N)C(=O)O; Nle = CCCC[C@H](N)C(=O)O; Orn = NCCC[C@H](N)C(=O)O; Dab = NCC[C@H](N)C(=O)O

Experiments:
Assay type in all cases: cell-based
[1] = system: Acinetobacter baumannii 872842; conditions: 872842
[2] = system: Acinetobacter baumannii DSM 30008; conditions: DSM 30008
In short: (§1)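 Inocula standardised to a 0.5 McFarland reference and diluted to about 10^6 CFU/mL in MH-II broth are incubated with two-fold peptide series containing 0.002% polysorbate 80. No visible growth after 18-20 hours at 35° C defines the MIC, in μg/mL.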

Escherichia coli 926415 = conditions: 926415
[3] = system: Escherichia coli ATCC 25922; conditions: ATCC 25922
In short: as §1

[4] = system: Klebsiella pneumoniae 968733; conditions: 968733
[5] = system: Klebsiella pneumoniae SSI #3010; conditions: SSI #3010
In short: as §1

[6] = system: Pseudomonas aeruginosa ATCC 27853; conditions: ATCC 27853
In short: as §1

[7] = system: human red blood cells (hRBC); assay: Hemolysis of human red blood cells; conditions: red cells of human, 1 h
In short: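 Peptides at 100 μg/mL were incubated with PBS-washed fresh human erythrocytes (20% v/v, ~0.9×10^9 cells/mL final) for 1 h at 37° C. with shaking. Supernatant OD540 was read after 8-fold dilution; percent hemolysis was expressed relative to the 2.5% Triton X-100 full-lysis control, with PBS/0.001% acetic acid as 0%.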

Row | SMILES | Acinetobacter baumannii 872842 MIC [1] [µg/mL] | Acinetobacter baumannii DSM 30008 MIC [2] [µg/mL] | Escherichia coli 926415 MIC (Escherichia coli 926415) [µg/mL] | Escherichia coli ATCC 25922 MIC [3] [µg/mL] | Klebsiella pneumoniae 968733 MIC [4] [µg/mL] | Klebsiella pneumoniae SSI #3010 MIC [5] [µg/mL] | Pseudomonas aeruginosa ATCC 27853 MIC [6] [µg/mL] | Hemolysis at 100 μg/mL [7]; 100 [%] | Hemolysis at 100 μg/mL ([7]; 100 μg/mL) [%]
1 | CCCC[C@@H]1NC(=O)[C@@H]2CCCN2C(=O)[C@H]2CCCN2C(=O)[C@H](CO)NC(=O)[C@H](C)NC(=O)[C@H](C(C)(C)C)NC(=O)[C@H](CCN)NC(=O)[C@H](Cc2c[nH]c3ccccc23)NC(=O)[C@@H](NC(C)=O)CCNC(=O)CC[C@@H](C(=O)N[C@@H](CCN)C(=O)N[C@H]2CCNC(=O)[C@H]([C@@H](C)O)NC(=O)[C@H](CCN)NC(=O)[C@H](CCN)NC(=O)[C@H](CC(C)C)NC(=O)[C@@H](Cc3ccccc3)NC(=O)[C@H](CCN)NC2=O)NC(=O)[C@H](CCCN)NC(=O)[C@H](CCN)NC(=O)[C@H](Cc2ccc(O)cc2)NC(=O)[C@H](CO)NC1=O [Ex. 59] (Ac-[Dab]W[Dab][Tle]AS[dP]P[Nle]SY[Dab][Orn]E[Dab][Dab][Dab][dF]L[Dab][Dab]T; lactam 1-14, 16-C) | 2 | 0.5 | 0.5 | 0.25 | 2 | 0.5 | 1 | <1 | 
2 | CCCC[C@@H]1NC(=O)[C@@H]2CCCN2C(=O)[C@H]2CCCN2C(=O)[C@H](CO)NC(=O)[C@H](C)NC(=O)[C@H](C(C)(C)C)NC(=O)[C@H](CCN)NC(=O)[C@H](Cc2c[nH]c3ccccc23)NC(=O)[C@@H](NC(C)=O)CSSC[C@@H](C(=O)N[C@H](CCN)C(=O)N[C@H]2CCNC(=O)[C@H]([C@@H](C)O)NC(=O)[C@H](CCN)NC(=O)[C@H](CCN)NC(=O)[C@H](CC(C)C)NC(=O)[C@@H](Cc3ccccc3)NC(=O)[C@H](CCN)NC2=O)NC(=O)[C@H](CCCN)NC(=O)[C@H](CCN)NC(=O)[C@H](Cc2ccc(O)cc2)NC(=O)[C@H](CO)NC1=O [Ex. 60] (Ac-CW[Dab][Tle]AS[dP]P[Nle]SY[Dab][Orn]C[dDab][Dab][Dab][dF]L[Dab][Dab]T; disulfide 1-14; lactam 16-C) | 1 | 1 | 0.25 | 0.0625 | 1 | 0.25 | 0.5 |  | <1
3 | CCCC[C@@H]1NC(=O)[C@@H]2CCCN2C(=O)[C@H]2CCCN2C(=O)[C@H](CO)NC(=O)[C@H](C)NC(=O)[C@H](C(C)(C)C)NC(=O)[C@H](CCN)NC(=O)[C@H](Cc2c[nH]c3ccccc23)NC(=O)[C@@H](NC(C)=O)CSSC[C@@H](C(=O)N[C@@H](CCN)C(=O)N[C@@H](CCN)C(=O)N[C@H]2CCNC(=O)[C@H]([C@@H](C)O)NC(=O)[C@H](CCN)NC(=O)[C@H](CCN)NC(=O)[C@H](CC(C)C)NC(=O)[C@@H](Cc3ccccc3)NC(=O)[C@H](CCN)NC2=O)NC(=O)[C@H](CCCN)NC(=O)[C@H](CCN)NC(=O)[C@H](Cc2ccc(O)cc2)NC(=O)[C@H](CO)NC1=O [Ex. 61] (Ac-CW[Dab][Tle]AS[dP]P[Nle]SY[Dab][Orn]C[Dab][Dab][Dab][Dab][dF]L[Dab][Dab]T; disulfide 1-14; lactam 17-C) | 1 | 1 | 2 | 0.5 | 8 | 1 | 0.25 |  | <1
4 | CCCC[C@@H]1NC(=O)[C@@H]2CCCN2C(=O)[C@H]2CCCN2C(=O)[C@H](CO)NC(=O)[C@H](C)NC(=O)[C@H](C(C)(C)C)NC(=O)[C@H](CCN)NC(=O)[C@H](Cc2c[nH]c3ccccc23)NC(=O)[C@@H](NC(C)=O)CSSC[C@@H](C(=O)N[C@@H](CCN)C(=O)N[C@H](C(=O)N[C@@H](CCN)C(=O)N[C@H]2CCNC(=O)[C@H]([C@@H](C)O)NC(=O)[C@H](CCN)NC(=O)[C@H](CCN)NC(=O)[C@H](CC(C)C)NC(=O)[C@@H](Cc3ccccc3)NC(=O)[C@H](CCN)NC2=O)[C@@H](C)O)NC(=O)[C@H](CCCN)NC(=O)[C@H](CCN)NC(=O)[C@H](Cc2ccc(O)cc2)NC(=O)[C@H](CO)NC1=O [Ex. 62] (Ac-CW[Dab][Tle]AS[dP]P[Nle]SY[Dab][Orn]C[Dab]T[Dab][Dab][Dab][dF]L[Dab][Dab]T; disulfide 1-14; lactam 18-C) | 0.5 | 0.5 | 1 | 0.25 | 8 | 0.5 | 0.5 |  | 1
5 | CCCC[C@@H]1NC(=O)[C@@H]2CCCN2C(=O)[C@H]2CCCN2C(=O)[C@H](CO)NC(=O)[C@H](C)NC(=O)[C@H](C(C)(C)C)NC(=O)[C@H](CCN)NC(=O)[C@H](Cc2c[nH]c3ccccc23)NC(=O)[C@H](NC(C)=O)CSSC[C@@H](C(=O)N[C@@H](CCN)C(=O)N[C@H](C(=O)N[C@@H](CCN)C(=O)N[C@H]2CCNC(=O)[C@H]([C@@H](C)O)NC(=O)[C@H](CCN)NC(=O)[C@H](CCN)NC(=O)[C@H](CC(C)C)NC(=O)[C@@H](Cc3ccccc3)NC(=O)[C@H](CCN)NC2=O)[C@@H](C)O)NC(=O)[C@H](CCCN)NC(=O)[C@H](CCN)NC(=O)[C@H](Cc2ccc(O)cc2)NC(=O)[C@H](CO)NC1=O [Ex. 63] (Ac-[dC]W[Dab][Tle]AS[dP]P[Nle]SY[Dab][Orn]C[Dab]T[Dab][Dab][Dab][dF]L[Dab][Dab]T; disulfide 1-14; lactam 18-C) | 2 | 2 | 3 | 0.5 | 8 | 2 | 0.5 |  | <1
